How the values were obtained:
Assay in all cases: Nanosyn kinase profiling
Assay type in all cases: biochemical
Settings in all cases: read-out: Percentage inhibition; for inhibition at 0.1 µM: 0.1 µM inhibitor; for inhibition at 1 µM: 1 µM inhibitor
TYRO3 = target: T1, TYRO3 (Homo sapiens, UniProt Q06418)
T1 construct: purchased Nanosyn (enzymatic panel); SGC in-house recombinant human kinases (DSF panel); Invitrogen (ALK1-6)
T1 sequence (Q06418 41-890): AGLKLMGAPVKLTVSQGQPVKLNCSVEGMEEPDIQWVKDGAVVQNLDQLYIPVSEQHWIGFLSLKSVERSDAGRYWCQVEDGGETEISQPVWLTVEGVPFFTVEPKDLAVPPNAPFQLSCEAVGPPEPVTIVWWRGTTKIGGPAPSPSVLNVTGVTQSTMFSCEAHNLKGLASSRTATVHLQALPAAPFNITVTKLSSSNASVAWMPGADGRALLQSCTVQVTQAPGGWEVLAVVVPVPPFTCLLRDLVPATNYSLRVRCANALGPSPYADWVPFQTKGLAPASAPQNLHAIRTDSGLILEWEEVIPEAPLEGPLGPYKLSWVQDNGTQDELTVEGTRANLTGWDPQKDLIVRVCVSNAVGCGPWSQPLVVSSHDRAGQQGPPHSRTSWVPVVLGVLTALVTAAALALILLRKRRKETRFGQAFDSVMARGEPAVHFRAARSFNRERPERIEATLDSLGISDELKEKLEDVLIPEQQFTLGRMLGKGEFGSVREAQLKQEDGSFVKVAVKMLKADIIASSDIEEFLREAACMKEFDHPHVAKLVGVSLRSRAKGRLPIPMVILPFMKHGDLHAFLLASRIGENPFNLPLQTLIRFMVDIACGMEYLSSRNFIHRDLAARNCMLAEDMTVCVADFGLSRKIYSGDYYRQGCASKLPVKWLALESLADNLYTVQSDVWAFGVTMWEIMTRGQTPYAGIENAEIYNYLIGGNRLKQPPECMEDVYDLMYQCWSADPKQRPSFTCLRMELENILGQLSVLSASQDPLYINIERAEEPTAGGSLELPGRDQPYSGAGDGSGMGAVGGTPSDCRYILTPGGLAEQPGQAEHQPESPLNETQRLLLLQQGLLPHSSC
Method in brief: (§1)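 Percent inhibition of each kinase was measured with the inhibitor at 0.1 µM and at 1 µM, as part of a 200-kinase human selectivity panel.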

RSK3 = target: T2, RSK3 (Homo sapiens, UniProt Q15349)
T2 construct: purchased Nanosyn (enzymatic panel); SGC in-house recombinant human kinases (DSF panel); Invitrogen (ALK1-6)
Method in brief: as §1

MSK2 = target: T3, MSK2 (Homo sapiens, UniProt O75676)
T3 construct: purchased Nanosyn (enzymatic panel); SGC in-house recombinant human kinases (DSF panel); Invitrogen (ALK1-6)
Method in brief: as §1

p38β = target: T4, p38β (Homo sapiens, UniProt Q15759)
T4 construct: purchased Nanosyn (enzymatic panel); SGC in-house recombinant human kinases (DSF panel); Invitrogen (ALK1-6)
Method in brief: as §1

NEK7 = target: T5, NEK7 (Homo sapiens, UniProt Q8TDX7)
T5 construct: purchased Nanosyn (enzymatic panel); SGC in-house recombinant human kinases (DSF panel); Invitrogen (ALK1-6)
Method in brief: as §1

TNK2 = target: T6, TNK2 (Homo sapiens, UniProt Q07912)
T6 construct: purchased Nanosyn (enzymatic panel); SGC in-house recombinant human kinases (DSF panel); Invitrogen (ALK1-6)
Method in brief: as §1

PAK2 = target: T7, PAK2 (Homo sapiens, UniProt Q13177)
T7 construct: purchased Nanosyn (enzymatic panel); SGC in-house recombinant human kinases (DSF panel); Invitrogen (ALK1-6)
Method in brief: as §1

ZAP70 = target: T8, ZAP70 (Homo sapiens, UniProt P43403)
T8 construct: purchased Nanosyn (enzymatic panel); SGC in-house recombinant human kinases (DSF panel); Invitrogen (ALK1-6)
T8 sequence (P43403 1-619): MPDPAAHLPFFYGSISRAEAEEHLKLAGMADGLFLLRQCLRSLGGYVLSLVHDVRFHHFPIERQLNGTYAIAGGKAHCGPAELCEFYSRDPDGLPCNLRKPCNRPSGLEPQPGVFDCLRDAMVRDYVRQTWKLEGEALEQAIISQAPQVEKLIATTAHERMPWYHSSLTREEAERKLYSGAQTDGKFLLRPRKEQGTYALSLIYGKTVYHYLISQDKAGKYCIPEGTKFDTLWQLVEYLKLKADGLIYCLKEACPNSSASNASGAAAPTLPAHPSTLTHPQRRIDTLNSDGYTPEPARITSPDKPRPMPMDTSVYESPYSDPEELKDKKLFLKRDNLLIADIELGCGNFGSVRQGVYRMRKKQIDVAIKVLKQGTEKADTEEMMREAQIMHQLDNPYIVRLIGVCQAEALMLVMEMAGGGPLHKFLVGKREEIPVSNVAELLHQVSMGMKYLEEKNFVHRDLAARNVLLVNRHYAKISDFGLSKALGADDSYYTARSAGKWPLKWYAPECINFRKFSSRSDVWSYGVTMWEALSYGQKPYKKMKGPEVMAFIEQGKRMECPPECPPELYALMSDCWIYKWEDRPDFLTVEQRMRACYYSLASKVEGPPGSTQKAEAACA
Method in brief: as §1

T2 sequence (Q15349 whole entry): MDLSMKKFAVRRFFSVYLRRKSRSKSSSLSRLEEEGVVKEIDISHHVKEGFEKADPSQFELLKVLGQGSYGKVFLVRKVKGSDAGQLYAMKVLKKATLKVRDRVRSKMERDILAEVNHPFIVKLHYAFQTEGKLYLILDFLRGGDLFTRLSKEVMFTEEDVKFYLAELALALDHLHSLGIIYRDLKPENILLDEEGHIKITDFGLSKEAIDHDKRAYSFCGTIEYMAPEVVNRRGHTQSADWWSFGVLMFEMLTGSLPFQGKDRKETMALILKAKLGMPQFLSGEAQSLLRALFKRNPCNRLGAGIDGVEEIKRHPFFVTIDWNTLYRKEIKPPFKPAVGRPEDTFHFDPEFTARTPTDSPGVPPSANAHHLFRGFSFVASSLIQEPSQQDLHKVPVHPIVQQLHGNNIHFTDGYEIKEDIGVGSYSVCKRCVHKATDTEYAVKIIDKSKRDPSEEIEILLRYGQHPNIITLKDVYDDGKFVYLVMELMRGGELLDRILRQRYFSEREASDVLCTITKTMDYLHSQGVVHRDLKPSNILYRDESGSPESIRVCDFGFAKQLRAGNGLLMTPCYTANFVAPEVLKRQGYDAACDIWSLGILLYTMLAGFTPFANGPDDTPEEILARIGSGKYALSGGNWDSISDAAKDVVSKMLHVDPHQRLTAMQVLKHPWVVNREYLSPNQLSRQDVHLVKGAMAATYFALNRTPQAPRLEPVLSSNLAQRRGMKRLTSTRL
T3 sequence (O75676 whole entry): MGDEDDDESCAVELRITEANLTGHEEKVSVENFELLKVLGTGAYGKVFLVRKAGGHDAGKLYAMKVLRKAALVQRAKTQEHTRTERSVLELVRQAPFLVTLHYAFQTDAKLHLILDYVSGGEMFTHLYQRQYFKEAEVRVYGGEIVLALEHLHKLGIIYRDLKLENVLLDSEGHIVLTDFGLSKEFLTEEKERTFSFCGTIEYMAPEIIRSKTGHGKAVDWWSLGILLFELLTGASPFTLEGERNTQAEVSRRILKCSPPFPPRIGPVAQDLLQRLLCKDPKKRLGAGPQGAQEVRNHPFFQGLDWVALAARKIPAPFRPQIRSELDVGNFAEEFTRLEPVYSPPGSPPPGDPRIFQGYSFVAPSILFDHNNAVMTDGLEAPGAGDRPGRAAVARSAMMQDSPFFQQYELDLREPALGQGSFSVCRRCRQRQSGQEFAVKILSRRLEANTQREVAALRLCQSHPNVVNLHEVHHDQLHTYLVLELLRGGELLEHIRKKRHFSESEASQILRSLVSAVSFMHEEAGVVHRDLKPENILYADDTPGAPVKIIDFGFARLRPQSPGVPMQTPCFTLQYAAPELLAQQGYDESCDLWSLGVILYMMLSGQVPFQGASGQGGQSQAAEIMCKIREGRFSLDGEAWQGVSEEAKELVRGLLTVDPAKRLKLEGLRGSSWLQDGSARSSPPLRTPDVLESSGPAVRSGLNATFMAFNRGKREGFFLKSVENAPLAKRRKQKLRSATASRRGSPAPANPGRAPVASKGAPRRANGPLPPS
T5 sequence (Q8TDX7 whole entry): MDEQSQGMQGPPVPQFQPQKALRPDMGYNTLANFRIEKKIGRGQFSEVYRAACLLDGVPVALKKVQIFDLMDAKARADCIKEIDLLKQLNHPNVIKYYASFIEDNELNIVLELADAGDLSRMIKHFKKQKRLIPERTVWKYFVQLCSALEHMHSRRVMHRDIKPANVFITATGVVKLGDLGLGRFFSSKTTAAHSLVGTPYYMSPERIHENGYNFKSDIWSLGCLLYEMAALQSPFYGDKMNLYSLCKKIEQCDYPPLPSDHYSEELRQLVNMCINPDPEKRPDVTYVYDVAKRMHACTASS
T7 sequence (Q13177 whole entry): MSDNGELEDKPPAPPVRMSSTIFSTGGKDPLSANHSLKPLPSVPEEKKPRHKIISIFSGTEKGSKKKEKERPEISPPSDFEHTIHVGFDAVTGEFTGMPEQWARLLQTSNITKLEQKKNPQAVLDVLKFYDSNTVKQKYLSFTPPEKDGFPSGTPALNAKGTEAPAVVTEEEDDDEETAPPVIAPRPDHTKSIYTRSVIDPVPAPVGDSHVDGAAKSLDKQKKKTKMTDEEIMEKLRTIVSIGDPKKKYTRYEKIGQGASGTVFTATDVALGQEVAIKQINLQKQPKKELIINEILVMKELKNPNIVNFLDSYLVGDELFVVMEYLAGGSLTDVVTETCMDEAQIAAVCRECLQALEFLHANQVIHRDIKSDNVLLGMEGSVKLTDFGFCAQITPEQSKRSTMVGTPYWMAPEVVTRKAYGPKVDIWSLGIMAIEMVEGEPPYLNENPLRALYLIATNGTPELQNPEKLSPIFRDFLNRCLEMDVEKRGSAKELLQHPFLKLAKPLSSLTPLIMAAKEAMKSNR
T4 sequence (Q15759 whole entry): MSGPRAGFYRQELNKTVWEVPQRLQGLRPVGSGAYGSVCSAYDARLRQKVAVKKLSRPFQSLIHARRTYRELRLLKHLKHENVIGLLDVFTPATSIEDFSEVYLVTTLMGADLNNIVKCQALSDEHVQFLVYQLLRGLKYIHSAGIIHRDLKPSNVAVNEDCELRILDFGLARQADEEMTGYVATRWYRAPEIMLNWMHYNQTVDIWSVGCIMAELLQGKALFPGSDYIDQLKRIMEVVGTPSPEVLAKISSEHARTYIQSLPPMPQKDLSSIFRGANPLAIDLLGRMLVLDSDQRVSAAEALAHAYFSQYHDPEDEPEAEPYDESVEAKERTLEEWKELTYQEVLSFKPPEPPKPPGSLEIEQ
T6 sequence (Q07912 whole entry): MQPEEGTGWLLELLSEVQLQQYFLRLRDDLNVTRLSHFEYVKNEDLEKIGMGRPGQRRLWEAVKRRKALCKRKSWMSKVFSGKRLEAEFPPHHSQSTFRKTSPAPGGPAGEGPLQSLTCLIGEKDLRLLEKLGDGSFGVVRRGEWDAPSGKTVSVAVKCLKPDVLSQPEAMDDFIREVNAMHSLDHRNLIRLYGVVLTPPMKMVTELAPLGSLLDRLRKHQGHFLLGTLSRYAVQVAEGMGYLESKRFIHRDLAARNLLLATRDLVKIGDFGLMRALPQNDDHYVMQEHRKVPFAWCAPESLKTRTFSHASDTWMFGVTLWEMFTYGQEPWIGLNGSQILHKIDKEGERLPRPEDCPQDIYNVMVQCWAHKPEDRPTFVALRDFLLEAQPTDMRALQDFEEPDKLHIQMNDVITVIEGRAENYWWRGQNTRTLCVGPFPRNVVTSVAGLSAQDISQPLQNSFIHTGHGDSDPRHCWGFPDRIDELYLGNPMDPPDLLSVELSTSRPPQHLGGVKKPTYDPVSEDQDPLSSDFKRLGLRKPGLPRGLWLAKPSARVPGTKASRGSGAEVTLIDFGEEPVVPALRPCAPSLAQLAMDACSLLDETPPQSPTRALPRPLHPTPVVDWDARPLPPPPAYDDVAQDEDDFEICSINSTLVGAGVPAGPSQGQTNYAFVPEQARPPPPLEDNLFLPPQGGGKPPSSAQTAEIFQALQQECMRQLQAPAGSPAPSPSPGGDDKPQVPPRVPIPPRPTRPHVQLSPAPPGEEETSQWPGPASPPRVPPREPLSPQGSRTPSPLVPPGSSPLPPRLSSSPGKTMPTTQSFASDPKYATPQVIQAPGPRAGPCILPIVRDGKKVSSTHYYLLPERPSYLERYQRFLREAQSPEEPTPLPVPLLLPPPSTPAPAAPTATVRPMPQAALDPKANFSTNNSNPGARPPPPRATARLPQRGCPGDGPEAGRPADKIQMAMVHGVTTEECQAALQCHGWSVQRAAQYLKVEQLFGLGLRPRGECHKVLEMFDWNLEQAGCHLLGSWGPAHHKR

Row | Structure (SMILES) | inhibition at 0.1 µM (TYRO3) [%] | inhibition at 1 µM (TYRO3) [%] | inhibition at 0.1 µM (RSK3) [%] | inhibition at 1 µM (RSK3) [%] | inhibition at 0.1 µM (MSK2) [%] | inhibition at 1 µM (MSK2) [%] | inhibition at 0.1 µM (p38β) [%] | inhibition at 1 µM (p38β) [%] | inhibition at 0.1 µM (NEK7) [%] | inhibition at 1 µM (NEK7) [%] | inhibition at 0.1 µM (TNK2) [%] | inhibition at 1 µM (TNK2) [%] | inhibition at 0.1 µM (PAK2) [%] | inhibition at 1 µM (PAK2) [%] | inhibition at 0.1 µM (ZAP70) [%] | inhibition at 1 µM (ZAP70) [%]
1 | COc1cc(-c2cc(-c3cccc(O)c3)cnc2N)cc(OC)c1OC [K02288, 3-[6-amino-5-(3,4,5-trimethoxy-phenyl)-pyridin-3-yl]-phenol] | 1.8 | 19 | 0.6 | 1.1 | -1 | 1 | 0 | 9.7 | 0.2 | -3 | 3.6 | 31 | -1 | -1 | -2 | 1
2 | c1ccc2c(-c3cnn4cc(-c5ccc(N6CCNCC6)cc5)cnc34)ccnc2c1 [LDN-193189] | 13 | 58 | 1.5 | 5.6 | 0.9 | 0.8 | 0.4 | 1.5 | 7.9 | 1.7 | 2 | 10 | 0 | 0 | 4.7 | 1
